The term melting point denotes the temperature of the solid-liquid transition.

`CCOC(=O)c1cccc(Cc2c(C(=O)OCC)n(Cc3cc4c(cc3CC)OCO4)c3ccc(O)cc3c2=O)c1` [Product 1a, Ethyl 3-(3-(ethoxycarbonyl)benzyl)-1-((6-ethylbenzo[d][1,3]dioxol-5-yl)methyl)-6-hydroxy-4-oxo-1,4-dihydroquinoline-2-carboxylate] registered a melting point of 232 to 234 °C.
With `CCOC(=O)c1cccc(Cc2c(C(=O)OCC)n(Cc3cc4c(cc3CC)OCO4)c3ccc(OCC)cc3c2=O)c1` [Product 1b, Ethyl 6-ethoxy-3-(3-(ethoxycarbonyl)benzyl)-1-((6-ethylbenzo[d][1,3]dioxol-5-yl)methyl)-4-oxo-1,4-dihydroquinoline-2-carboxylate], the melting point was 124 to 126 °C.
Compound `CCCOc1ccc2c(c1)c(=O)c(Cc1cccc(C(=O)OCC)c1)c(C(=O)OCC)n2Cc1cc2c(cc1CC)OCO2` [Product 1c, Ethyl 3-(3-(ethoxycarbonyl)benzyl)-1-((6-ethylbenzo[d][1,3]dioxol-5-yl)methyl)-4-oxo-6-propoxy-1,4-dihydroquinoline-2-carboxylate] gave a melting point of 134 to 135 °C.
As for `CCOC(=O)c1cccc(Cc2c(C(=O)OCC)n(Cc3cc4c(cc3CC)OCO4)c3ccc(OC(C)C)cc3c2=O)c1` [Product 1d, Ethyl 3-(3-(ethoxycarbonyl)benzyl)-1-((6-ethylbenzo[d][1,3]dioxol-5-yl)methyl)-6-isopropoxy-4-oxo-1,4-dihydroquinoline-2-carboxylate], the melting point lay within 124 to 126 °C.
Turning to `C=CCOc1ccc2c(c1)c(=O)c(Cc1cccc(C(=O)OCC)c1)c(C(=O)OCC)n2Cc1cc2c(cc1CC)OCO2` [Product 1e, Ethyl 6-(allyloxy)-3-(3-(ethoxycarbonyl)benzyl)-1-((6-ethylbenzo[d][1,3]dioxol-5-yl)methyl)-4-oxo-1,4-dihydroquinoline-2-carboxylate], the melting point lay in the range of 128 to 131 °C.
`CCCCOc1ccc2c(c1)c(=O)c(Cc1cccc(C(=O)OCC)c1)c(C(=O)OCC)n2Cc1cc2c(cc1CC)OCO2` [Product 1g, Ethyl 6-butoxy-3-(3-(ethoxycarbonyl)benzyl)-1-((6-ethylbenzo[d][1,3]dioxol-5-yl)methyl)-4-oxo-1,4-dihydroquinoline-2-carboxylate]: the melting point lay in the range of 147 to 150 °C.
For `CCOC(=O)c1cccc(Cc2c(C(=O)OCC)n(Cc3cc4c(cc3CC)OCO4)c3ccc(OCC(C)C)cc3c2=O)c1` [Product 1h, Ethyl 3-(3-(ethoxycarbonyl)benzyl)-1-((6-ethylbenzo[d][1,3]dioxol-5-yl)methyl)-6-isobutoxy-4-oxo-1,4-dihydroquinoline-2-carboxylate], the melting point lay in the range of 129 to 132 °C.
Compound `CCOC(=O)c1cccc(Cc2c(C(=O)OCC)n(Cc3cc4c(cc3CC)OCO4)c3ccc(OC(C)CC)cc3c2=O)c1` (stereo not shown) [Product 1i, Ethyl 6-sec-butoxy-3-(3-(ethoxycarbonyl)benzyl)-1-((6-ethylbenzo[d][1,3]dioxol-5-yl)methyl)-4-oxo-1,4-dihydroquinoline-2-carboxylate] came in with a melting point of 129 to 132 °C.
`CCCCCOc1ccc2c(c1)c(=O)c(Cc1cccc(C(=O)OCC)c1)c(C(=O)OCC)n2Cc1cc2c(cc1CC)OCO2` [Product 1k, Ethyl 3-(3-(ethoxycarbonyl)benzyl)-1-((6-ethylbenzo[d][1,3]dioxol-5-yl)methyl)-4-oxo-6-(pentyloxy)-1,4-dihydroquinoline-2-carboxylate] gave a melting point of 98 to 99 °C.
As for `CCOC(=O)c1cccc(Cc2c(C(=O)OCC)n(Cc3cc4c(cc3CC)OCO4)c3ccc(OCCCO)cc3c2=O)c1` [Product 1l, Ethyl 3-(3-(ethoxycarbonyl)benzyl)-1-((6-ethylbenzo[d][1,3]dioxol-5-yl)methyl)-6-(3-hydroxypropoxy)-4-oxo-1,4-dihydroquinoline-2-carboxylate], the melting point lay within 129 to 132 °C.
As for `CCOc1ccc2c(c1)c(=O)c(Cc1cccc(C(=O)O)c1)c(C(=O)O)n2Cc1cc2c(cc1CC)OCO2` [Product 1o, 3-(3-carboxybenzyl)-6-ethoxy-1-((6-ethylbenzo[d][1,3]dioxol-5-yl)methyl)-4-oxo-1,4-dihydroquinoline-2-carboxylic acid], the melting point lay within 213 to 215 °C.
For the compound `CCCOc1ccc2c(c1)c(=O)c(Cc1cccc(C(=O)O)c1)c(C(=O)O)n2Cc1cc2c(cc1CC)OCO2` [Product 1p, 3-(3-carboxybenzyl)-1-((6-ethylbenzo[d][1,3]dioxol-5-yl)methyl)-4-oxo-6-propoxy-1,4-dihydroquinoline-2-carboxylic acid], the melting point lay in the range of 162 to 163 °C.
In the case of `CCc1cc2c(cc1Cn1c(C(=O)O)c(Cc3cccc(C(=O)O)c3)c(=O)c3cc(OC(C)C)ccc31)OCO2` [Product 1q, 3-(3-carboxybenzyl)-1-((6-ethylbenzo[d][1,3]dioxol-5-yl)methyl)-6-isopropoxy-4-oxo-1,4-dihydroquinoline-2-carboxylic acid] it was 199 to 200 °C; in that of `C=CCOc1ccc2c(c1)c(=O)c(Cc1cccc(C(=O)O)c1)c(C(=O)O)n2Cc1cc2c(cc1CC)OCO2` [Product 1r, 6-(allyloxy)-3-(3-carboxybenzyl)-1-((6-ethylbenzo[d][1,3]dioxol-5-yl)methyl)-4-oxo-1,4-dihydroquinoline-2-carboxylic acid], 165 to 166 °C; in that of `CCCCOc1ccc2c(c1)c(=O)c(Cc1cccc(C(=O)O)c1)c(C(=O)O)n2Cc1cc2c(cc1CC)OCO2` [Product 1t, 6-butoxy-3-(3-carboxybenzyl)-1-((6-ethylbenzo[d][1,3]dioxol-5-yl)methyl)-4-oxo-1,4-dihydroquinoline-2-carboxylic acid], 161 to 162 °C.
Then `CCc1cc2c(cc1Cn1c(C(=O)O)c(Cc3cccc(C(=O)O)c3)c(=O)c3cc(OCC(C)C)ccc31)OCO2` [Product 1u, 3-(3-carboxybenzyl)-1-((6-ethylbenzo[d][1,3]dioxol-5-yl)methyl)-6-isobutoxy-4-oxo-1,4-dihydroquinolin-2-carboxylic], with 185 to 186 °C.
As for `CCc1cc2c(cc1Cn1c(C(=O)O)c(Cc3cccc(C(=O)O)c3)c(=O)c3cc(OCC4CC4)ccc31)OCO2` [Product 1w, 3-(3-carboxybenzyl)-6-(cyclopropylmethoxy)-1-((6-ethylbenzo[d][1,3]dioxol-5-yl)methyl)-4-oxo-1,4-dihydroquinoline-2-carboxylic acid], the melting point lay within 229 to 231 °C.
`CCCCCOc1ccc2c(c1)c(=O)c(Cc1cccc(C(=O)O)c1)c(C(=O)O)n2Cc1cc2c(cc1CC)OCO2` [Product 1x, 3-(3-carboxybenzyl)-1-((6-ethylbenzo[d][1,3]dioxol-5-yl)methyl)-4-oxo-6-(pentyloxy)-1,4-dihydroquinoline-2-carboxylic acid] registered a melting point of 152 to 155 °C.
Then `CCc1cc2c(cc1Cn1c(C(=O)O)c(Cc3cccc(C(=O)O)c3)c(=O)c3cc(OCCCO)ccc31)OCO2` [Product 1y, 3-(3-carboxybenzyl)-1-((6-ethylbenzo[d][1,3]dioxol-5-yl)methyl)-6-(3-hydroxypropoxy)-4-oxo-1,4-dihydroquinoline-2-carboxylic acid], with 192 to 194 °C.

(Values after US20090143426A1, “Synthesis of 1,3,6-trisubstituted-2-carboxyquinol-4-ones as selective ET A antagonists and their use as medicaments” (priority 2007, published 2009).)
